{
  "source": "paper PMC5734604",
  "about": "(Journal of Medicinal Chemistry, 2017)",
  "key": {"human CB1 receptor [1]": {"biological_target": "T1, human CB1 receptor (Homo sapiens, UniProt P21554)", "T1 sequence (P21554 whole entry)": "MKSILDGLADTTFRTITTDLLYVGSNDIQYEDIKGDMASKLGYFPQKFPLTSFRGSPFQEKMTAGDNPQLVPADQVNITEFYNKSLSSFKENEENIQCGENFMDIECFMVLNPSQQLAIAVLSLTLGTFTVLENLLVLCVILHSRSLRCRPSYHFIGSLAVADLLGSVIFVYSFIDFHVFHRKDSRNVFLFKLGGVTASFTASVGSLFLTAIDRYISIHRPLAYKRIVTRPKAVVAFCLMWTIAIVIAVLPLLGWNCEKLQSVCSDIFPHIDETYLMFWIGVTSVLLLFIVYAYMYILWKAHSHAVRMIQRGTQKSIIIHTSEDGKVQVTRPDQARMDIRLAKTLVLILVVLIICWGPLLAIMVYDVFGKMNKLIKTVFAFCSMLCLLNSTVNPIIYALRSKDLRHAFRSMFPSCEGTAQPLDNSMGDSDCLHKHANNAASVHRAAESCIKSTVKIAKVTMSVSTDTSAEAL", "assay": "biochemical", "assay_type": "binding", "details": "for residence time: read-out: RT (residence time)"}, "human CB1 receptor [2]": {"biological_target": "T1, human CB1 receptor", "assay": "[35S]GTPγS binding antagonism assay, hCB1 HEK-293 membranes", "assay_type": "biochemical", "details": "recombinant human CB1 receptors on HEK-293 cell membranes, 30 °C; SD (n = 2) or SEM (n ≥ 3)"}, "human CB1 receptor [3]": {"biological_target": "T1, human CB1 receptor"}, "human CB1 receptor [4]": {"biological_target": "T1, human CB1 receptor", "details": "association at 30 °C"}},
  "note": "“Also recorded” adds a separate entry of the source.",
  "data": [
    {"smiles": "Cc1c(C(=O)Nc2ccc(F)nc2)nc(-c2ccc(Cl)cc2Cl)n1-c1ccc(OS(=O)(=O)CCC(F)(F)F)cc1", "note": "[14f, 4-(2-(2,4-Dichlorophenyl)-4-(6-fluoropyridin-3-ylcarbamoyl)-5-methyl-1H-imidazol-1-yl)phenyl 3,3,3-trifluoropropane-1-sulfonate]", "values": [
      {"measurement": "koff", "setting": "human CB1 receptor [1]", "result": 0.00027, "unit": "s⁻¹"},
      {"measurement": "kon", "setting": "human CB1 receptor [1]", "result": 720000, "unit": "M⁻¹ s⁻¹"},
      {"measurement": "residence time", "setting": "human CB1 receptor [1]", "result": "62 ± 10", "unit": "min"}
    ]},
    {"smiles": "CCCCS(=O)(=O)Oc1ccc(-n2c(-c3ccc(Cl)cc3Cl)nc(C(=O)NN3CCCCC3)c2C)cc1", "note": "[11e, 4-(2-(2,4-Dichlorophenyl)-5-methyl-4-(piperidin-1-ylcarbamoyl)-1H-imidazol-1-yl)phenyl butane-1-sulfonate]", "values": [
      {"measurement": "[35S]GTPγS binding pIC50 ± SD or SEM", "setting": "human CB1 receptor [2]", "result": "8.9 ± 0.05"}
    ]},
    {"smiles": "CCCS(=O)(=O)Oc1ccc(-n2c(-c3ccc(Cl)cc3Cl)nc(C(=O)NN3CCCCC3)c2C)cc1", "note": "[11b, 4-(2-(2,4-Dichlorophenyl)-5-methyl-4-(piperidin-1-ylcarbamoyl)-1H-imidazol-1-yl)phenyl propane-1-sulfonate]", "values": [
      {"measurement": "koff", "setting": "human CB1 receptor [1]", "result": 0.00022, "unit": "s⁻¹"},
      {"measurement": "kon", "setting": "human CB1 receptor [1]", "result": 300000, "unit": "M⁻¹ s⁻¹"},
      {"measurement": "residence time", "setting": "human CB1 receptor [1]", "result": "78 ± 5", "unit": "min"}
    ]},
    {"smiles": "Cc1c(C(=O)Nc2ccc(C(F)(F)F)cn2)nc(-c2ccc(Cl)cc2Cl)n1-c1ccc(OS(=O)(=O)CCC(F)(F)F)cc1", "note": "[compound 28, 4-(2-(2,4-Dichlorophenyl)-5-methyl-4-(5-(trifluoromethyl)pyridin-2-ylcarbamoyl)-1H-imidazol-1-yl)phenyl 3,3,3-trifluoropropane-1-sulfonate]", "values": [
      {"measurement": "koff", "setting": "human CB1 receptor [1]", "result": "7.8e-05", "unit": "s⁻¹"},
      {"measurement": "kon", "setting": "human CB1 receptor [1]", "result": 350000, "unit": "M⁻¹ s⁻¹"},
      {"measurement": "residence time", "setting": "human CB1 receptor [1]", "result": "260 ± 56", "unit": "min"},
      {"measurement": "activity of compound alone (absence of CP55940)", "setting": "human CB1 receptor [3]", "result": "inverse agonism"},
      {"measurement": "type of antagonism of CP55940 action", "setting": "human CB1 receptor [3]", "result": "insurmountable antagonism; also recorded: insurmountability"}
    ]},
    {"smiles": "Cc1c(C(=O)NN2CCCCC2)nc(-c2ccc(Cl)cc2Cl)n1-c1ccc(OS(=O)(=O)CCC(C)C)cc1", "note": "[11g, 4-(2-(2,4-Dichlorophenyl)-5-methyl-4-(piperidin-1-ylcarbamoyl)-1H-imidazol-1-yl)phenyl 3-methylbutane-1-sulfonate]", "values": [
      {"measurement": "[35S]GTPγS binding pIC50 ± SD or SEM", "setting": "human CB1 receptor [2]", "result": "8.9 ± 0.1"}
    ]},
    {"smiles": "CCCCCCC(C)(C)c1ccc([C@@H]2C[C@H](O)CC[C@H]2CCCO)c(O)c1", "note": "[CP55940]", "values": [
      {"measurement": "time at which binding approached equilibrium", "setting": "human CB1 receptor [4]", "result": "approximately 25 min"}
    ]}
  ]
}
